Data: the supplement of paper PMC10307832

Tests used:
Test in all cases: relative viability (nuclei count vs DMSO), 5 days (fraction); higher = more cells survive
Erlotinib + AZD7762 = compound: C#Cc1cccc(Nc2ncnc3cc(OCCOC)c(OCCOC)cc23)c1 [Erlotinib] + NC(=O)Nc1cc(-c2cccc(F)c2)sc1C(=O)N[C@H]1CCCNC1 [AZD7762] (partner 0.2 µM)
Method in brief: (§1)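 Nuclei were stained with Hoechst during a one-step fixation (final 0.05% Triton X-100, 1% formaldehyde, 1 ug/ml Hoechst) carried out 5 days after dosing, then counted on 4× images. The cells, lung cancer lines in 1536-well plates, had been dosed by pin tool the day after seeding with one drug alone or a fixed anchor-drug dose plus five library-drug doses (not always all listed) in √10 steps. Relative viability is the nuclei count in treated wells divided by that in vehicle wells, and each value is the median of duplicate plates.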

Erlotinib + Dasatinib = compound: C#Cc1cccc(Nc2ncnc3cc(OCCOC)c(OCCOC)cc23)c1 [Erlotinib] + Cc1nc(Nc2ncc(C(=O)Nc3c(C)cccc3Cl)s2)cc(N2CCN(CCO)CC2)n1 [Dasatinib] (partner 0.075 µM)
Method in brief: as §1

Erlotinib + Bortezomib = compound: C#Cc1cccc(Nc2ncnc3cc(OCCOC)c(OCCOC)cc23)c1 [Erlotinib] + CC(C)C[C@H](NC(=O)[C@H](Cc1ccccc1)NC(=O)c1cnccn1)B(O)O [Bortezomib] (partner 0.002 µM)
Method in brief: as §1

AT9283 + OSI-027 = compound: O=C(Nc1c[nH]nc1-c1nc2ccc(CN3CCOCC3)cc2[nH]1)NC1CC1 [AT9283] + COc1cccc2cc(-c3nc([C@H]4CC[C@H](C(=O)O)CC4)n4ncnc(N)c34)[nH]c12 [OSI-027] (partner 0.5 µM)
Method in brief: as §1

Erlotinib + Navitoclax = compound: C#Cc1cccc(Nc2ncnc3cc(OCCOC)c(OCCOC)cc23)c1 [Erlotinib] + CC1(C)CCC(c2ccc(Cl)cc2)=C(CN2CCN(c3ccc(C(=O)NS(=O)(=O)c4ccc(N[C@H](CCN5CCOCC5)CSc5ccccc5)c(S(=O)(=O)C(F)(F)F)c4)cc3)CC2)C1 [Navitoclax] (partner 0.5 µM)
Method in brief: as §1

Which relative viability (Erlotinib + AZD7762; first compound 0.02 µM) does the source give for NCI-H441 here?
The relative viability was 1.2.

And the relative viability (Erlotinib + AZD7762; first compound 0.2 µM)?
The relative viability was 1.06.

What about the relative viability (Erlotinib + AZD7762; first compound 0.6325 µM) of the same cell line?
The relative viability was 1.1.

And the relative viability (Erlotinib + AZD7762; first compound 2 µM)?
Its relative viability is 1.11.

And the relative viability (Erlotinib + Dasatinib; first compound 0.02 µM)?
The relative viability was 0.651.

And the relative viability (Erlotinib + Dasatinib; first compound 0.2 µM)?
Its relative viability is 0.554.

What about the relative viability (Erlotinib + Dasatinib; first compound 0.6325 µM) of the same cell line?
Its relative viability is 0.508.

And the relative viability (Erlotinib + Dasatinib; first compound 2 µM)?
The relative viability was 0.61.

What about the relative viability (Erlotinib + Bortezomib; first compound 0.02 µM) of the same cell line?
The relative viability was 0.724.

And the relative viability (Erlotinib + Bortezomib; first compound 0.2 µM)?
Its relative viability is 0.471.

What about the relative viability (Erlotinib + Bortezomib; first compound 0.6325 µM) of the same cell line?
Its relative viability is 0.383.

What about the relative viability (Erlotinib + Bortezomib; first compound 2 µM) of the same cell line?
Its relative viability is 0.219.

What about the relative viability (AT9283 + OSI-027; first compound 0.003 µM) of the same cell line?
The relative viability was 0.532.

And the relative viability (AT9283 + OSI-027; first compound 0.03 µM)?
Its relative viability is 0.574.

What about the relative viability (AT9283 + OSI-027; first compound 0.09487 µM) of the same cell line?
The relative viability was 0.321.

And the relative viability (AT9283 + OSI-027; first compound 0.3 µM)?
The relative viability was 0.333.

And the relative viability (Erlotinib + Navitoclax; first compound 0.02 µM)?
Its relative viability is 1.03.

What about the relative viability (Erlotinib + Navitoclax; first compound 0.2 µM) of the same cell line?
Its relative viability is 0.805.

And the relative viability (Erlotinib + Navitoclax; first compound 0.6325 µM)?
Its relative viability is 0.555.

What about the relative viability (Erlotinib + Navitoclax; first compound 2 µM) of the same cell line?
The relative viability was 0.302.
